# Measurements as given in paper PMC9841532, “Exploring the Effect of Halogenation in a Series of Potent and Selective A2B Adenosine Receptor Antagonists” (Journal of Medicinal Chemistry, 2022).
# Columns and labels:
# hA2AAR = target: T1, hA2AAR (Homo sapiens, UniProt P29274); test: Radioligand binding competition, [3H]ZM241385, membranes from HeLa-A2A cells; settings: 1 μM, [3H]ZM241385, human HeLa cells, n = 2
# T1 construct: expressed in transfected cells; host or cells: HeLa (HeLa-A2A) cell membranes
# Outline: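 Racemates, plus selected enantiomers after chiral resolution, were tested at 25 °C, with a 60 min incubation for one subtype and 30 min for others. Non-specific binding was defined with 10 μM or 100 μM R-PIA. Bound radioactivity was counted after washing and filtration.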
# [1] = Human microsomal stability; type: in vitro ADME; settings: human microsomes; for microsomal stability percent (percentage remanent): sampling time 60 min; for microsomal CLint at 1 h / half-life at 1 h: human, pH 7.4; for microsomal CLint at 1 h: read-out: microsomal stability Clint (intrinsic clearance); for half-life at 1 h: read-out: microsomal stability t1/2
# Experimental: The human microsomal stability of selected compounds was evaluated by following a previously described method.[31] The human microsomes employed were purchased from Tebu-Xenotech. The compound was incubated with the microsomes at 37 °C in a 50 mM phosphate buffer (pH = 7.4) containing 3 mM MgCl2, 1 mM NADP, 10 mM glucose-6-phosphate, and 1 U/mL glucose-6-phosphate-dehydrogenase. Samples (75 μL) were taken from each well at 0, 10, 20, 40, and 60 min and transferred to a plate containing 4 °C 75 μL acetonitrile and 30 μL of 0.5% formic acid in water was added for improving the chromatographic conditions. The plate was centrifuged (46,000 g, 30 min), and supernatants were taken and analyzed in a UPLC-MS/MS (Xevo TQD, Waters) by employing a BEH C18 column and an isocratic gradient of 0.1% formic acid in water:0.1% formic acid acetonitrile (60:40). The metabolic stability of the compounds was calculated from the logarithm of the remaining compounds at each of the time point studied.
# CYP3A4 = target: T2, CYP3A4 (Homo sapiens, UniProt P08684); test: CYP3A4 inhibition (fluorescence, substrates DBF or 7-BFC); type: biochemical; settings: for CYP3A4 % inh. at 10 μM, 7-BFC: substrate 7-benzyloxy-4-trifluoromethyl-coumarin; for IC50: IC50 obtained by extrapolation with analysis software, read-out: CYP3A4 IC50, DBF
# T2 construct: host or cells: insect cell microsomes
# Experimental: To identify potential metabolic liabilities within the series here documented, the selected A2BAR antagonists were tested in vitro for CYP3A4 inhibitory activity.
# The inhibitory activity of selected compounds was evaluated by following a previously described method.[31] […] The plate was then pre-incubated at 37 °C for 5 min and the reaction initiated by the addition of a pre-warmed enzyme/substrate (E/S) mix. The E/S mix contained buffer (KH2PO4), c-DNA-expressed P450 in insect cell microsomes, substrate (DBF: dibenzylfluorescein or 7-BFC: 7-benzyloxy-4-trifluoromethyl-coumarin) and other components to give the final assay concentrations in a reaction volume of 200 μL. Reactions were terminated after various times (a specific time for each cytochrome) by addition of STOP solution (ACN/Tris–HCl 0.5 M 80:20, and NaOH 2 N for CYP3A4). Fluorescence per well was measured using a fluorescence plate reader (Tecan Infinite M1000 PRO), and percentage of inhibition was calculated. In silico predictions were performed using free web-based models (FAME 3, SmartCYP, and Xenosite).[62]−[64]
# A2BAR = target: T3, A2BAR (Homo sapiens, UniProt P29275); test: cAMP accumulation assay in HEK-293 cells permanently expressing A2BAR-SNAP; type: cell-based; settings: read-out: KB (hA2B)
# T3 construct: expressed in transfected cells; host or cells: HEK-293 T cells permanently expressing pRK5-A2BAR^SNAP
# T3 sequence (P29275 1-332): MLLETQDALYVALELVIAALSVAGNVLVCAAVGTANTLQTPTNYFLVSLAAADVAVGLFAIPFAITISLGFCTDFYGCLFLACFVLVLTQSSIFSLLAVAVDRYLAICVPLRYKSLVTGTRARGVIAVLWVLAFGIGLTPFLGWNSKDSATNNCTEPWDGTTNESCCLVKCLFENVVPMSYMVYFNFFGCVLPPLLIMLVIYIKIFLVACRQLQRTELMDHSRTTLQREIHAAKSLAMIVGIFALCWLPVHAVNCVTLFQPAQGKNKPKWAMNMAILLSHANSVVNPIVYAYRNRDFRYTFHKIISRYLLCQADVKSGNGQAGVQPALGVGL
# Experimental: To assess their ability to block A2BAR agonist intrinsic activity, the effect on A2BAR-mediated cAMP accumulation and cellular impedance was evaluated. To this end, we used HEK-293 cells permanently expressing the A2BAR^SNAP construct, which can be visualized upon staining the cells with a SNAP-fluorescent substrate.
# Scale bar: […]. […] Data are expressed as mean ± SEM (n = 4).
# cAMP accumulation was measured using the LANCE Ultra cAMP kit (PerkinElmer, Waltham, Massachusetts, USA) as previously described.[55] […] The 384-well plate was incubated 1 h at 22 °C in the dark and was then read on a CLARIOstar Microplate Reader (BMG Labtech, Durham, North Carolina, USA). […] Data were fitted by non-linear regression using GraphPad Prism 9 (San Diego, California, USA).
# T1 sequence (P29274 whole entry): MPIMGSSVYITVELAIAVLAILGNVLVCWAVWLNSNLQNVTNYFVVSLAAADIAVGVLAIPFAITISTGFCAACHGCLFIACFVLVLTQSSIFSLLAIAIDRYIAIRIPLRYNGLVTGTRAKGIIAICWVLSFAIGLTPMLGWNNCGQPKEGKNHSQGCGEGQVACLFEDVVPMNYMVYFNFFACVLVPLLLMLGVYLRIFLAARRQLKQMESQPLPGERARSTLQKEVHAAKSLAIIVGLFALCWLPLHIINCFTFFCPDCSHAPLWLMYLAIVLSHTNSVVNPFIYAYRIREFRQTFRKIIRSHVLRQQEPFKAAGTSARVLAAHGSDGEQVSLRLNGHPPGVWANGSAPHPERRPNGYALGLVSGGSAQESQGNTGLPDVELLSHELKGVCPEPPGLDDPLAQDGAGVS
# T2 sequence (P08684 whole entry): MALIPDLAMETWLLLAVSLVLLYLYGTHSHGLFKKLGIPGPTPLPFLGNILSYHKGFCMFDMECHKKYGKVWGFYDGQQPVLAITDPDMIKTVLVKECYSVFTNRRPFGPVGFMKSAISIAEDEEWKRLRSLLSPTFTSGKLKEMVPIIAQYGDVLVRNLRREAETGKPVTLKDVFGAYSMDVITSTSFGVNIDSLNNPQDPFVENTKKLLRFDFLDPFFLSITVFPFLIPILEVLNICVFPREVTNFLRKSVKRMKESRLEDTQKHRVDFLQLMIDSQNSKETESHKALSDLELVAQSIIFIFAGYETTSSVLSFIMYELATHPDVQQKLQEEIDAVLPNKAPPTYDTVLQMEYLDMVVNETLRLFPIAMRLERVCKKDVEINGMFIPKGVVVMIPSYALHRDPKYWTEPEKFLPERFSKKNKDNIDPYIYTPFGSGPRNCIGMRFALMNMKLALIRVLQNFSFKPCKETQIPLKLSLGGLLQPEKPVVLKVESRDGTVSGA
% at 1 μM hA2A (percentage displacement of specific binding) (hA2AAR) [%],microsomal stability percent (percentage remanent) [1] [%],microsomal CLint at 1 h [1] [µL/min/mg],half-life at 1 h [1] [min],"CYP3A4 % inh. at 10 μM, 7-BFC (CYP3A4; 10 μM) [%]","CYP3A4 % inh. at 10 μM, DBF (CYP3A4; 10 μM, substrate dibenzylfluorescein) [%]",Kb (A2BAR) [nM],IC50 (CYP3A4; substrate dibenzylfluorescein) [nM],SMILES
2,19.83,20.1,27.4,63,40,0.8 ± 0.2,–,CC1=C(C(=O)OC(C)C)C(c2ccco2)n2c(nc3cc(F)ccc32)N1 (stereo not drawn) [16b]
24,22.75,18.6,28.1,54,–,0.6 ± 0.2,3680 ± 470,CC1=C(C(=O)OC(C)C)C(c2ccco2)n2c(nc3cc(Cl)ccc32)N1 (stereo not drawn) [16j]
2,32.13,14.2,36.8,52,–,1.7 ± 0.6,2260 ± 300,CC1=C(C(=O)OC(C)C)C(c2ccco2)n2c(nc3cc(Br)ccc32)N1 (stereo not drawn) [16r]
